These are literature values, as cited in patent publication US11529387B2, “Nutritional supplements and methods of nutritional supplementation affecting global mood state” (Amare Global, priority 2019, dated 2022).

For data set [1] the following is noted: runners, submaximal running intensity, week 8 post-supplementation vs pre-supplementation and vs placebo, p<0.05.

With `CC1=C(/C=C/C(C)=C/C=C/C(C)=C/C=C/C=C(C)/C=C/C=C(C)/C=C/C2=C(C)C(=O)[C@@H](O)CC2(C)C)C(C)(C)C[C@H](O)C1=O` [NAX, astaxanthin], in data set [1], the “heart rate (HR) at AT, anaerobic threshold” value is on record as “significantly lower heart rate” and the “heart rate (HR) at AeT, aerobic threshold” value is given as “significantly lower heart rate”. For the same compound, the “Global Mood State score” value (8 weeks post-supplementation, lower score = more positive mood) is 127+20. Further, under “8 weeks post-supplementation, lower score = more positive mood, p<0.05”, the “Global Mood change” value is −11%. Besides, where the note is “baseline to week 8, NS”, the Anger sub-scale change is listed as −12%, the Confusion sub-scale change is reported as −28%, the Tension sub-scale change was −20% and the Vigor sub-scale change result is listed as “+5%”. Besides, where the note is “baseline to week 8, p<0.05”, the Depression sub-scale change is −57% and the Fatigue sub-scale change was −36%.
